Data published in patent US20050239755A1, “External preparation for inhibiting keloid formation” (priority 2002, published 2005).

Legend:
[1] = tested on: human normal fibroblast; test: Test of inhibition of collagen gel shrinking (human normal fibroblast); type: cell-based; details: for Shrinking rate of collagen: after 24 hours
Experimental: (§1) Test of Inhibition of Collagen Gel Shrinking. A collagen solution (1.5 mg/mL) (1 mL) and a suspension of human normal fibroblast or human fibroblast derived from keloid (1×10^5 cells) (1 mL) were added to a Petri dish (diameter; 35 mm) and mixed. The mixture was warmed for about 10 minutes in an incubator (37° C., 5% CO2) to prepare collagen gel. Further broth (1 mL) was added over thereon and was left for about 3 hours in the incubator (37° C., 5% CO2). The collagen gel was released from the Petri dish, and thereto was added a solution containing acetylsalicylic acid (its final concentration was respectively 0, 0.05, 0.5, 5, and 50 μM). The suspension was cultured in the incubator (37° C., 5% CO2) and after 24 hours the shrinking rate was evaluated.

[2] = tested on: human fibroblast derived from keloid; test: Test of inhibition of collagen gel shrinking (human fibroblast derived from keloid); type: cell-based; details: for Shrinking rate: after 24 hours
Experimental: as §1

## CC(=O)Oc1ccccc1C(=O)O [Acetylsalicylic acid]
[1]; Table 9
  shrinking of collagen (in words): inhibited
[1]; acetylsalicylic acid 0.05 μM
  Shrinking rate of collagen: 23%
[1]; acetylsalicylic acid 0.5 μM
  Shrinking rate of collagen: 12%
[1]; acetylsalicylic acid 5 μM
  Shrinking rate of collagen: 10%
[1]; acetylsalicylic acid 50 μM
  Shrinking rate of collagen: 14%
[2]; Table 10
  shrinking of collagen (in words): inhibited
[2]; acetylsalicylic acid 0.05 μM
  Shrinking rate: 21%
[2]; acetylsalicylic acid 0.5 μM
  Shrinking rate: 19%
[2]; acetylsalicylic acid 5 μM
  Shrinking rate: 24%
[2]; acetylsalicylic acid 50 μM
  Shrinking rate: 20%
